The values that follow come from US12662489B2 (Sitryx Therapeutics Limited, priority 2023, dated 2026).

Assay [1] has as its target T1, MTHFD2 recombinant human enzyme (Homo sapiens, UniProt P13995).
T1 sequence (P13995 36-350): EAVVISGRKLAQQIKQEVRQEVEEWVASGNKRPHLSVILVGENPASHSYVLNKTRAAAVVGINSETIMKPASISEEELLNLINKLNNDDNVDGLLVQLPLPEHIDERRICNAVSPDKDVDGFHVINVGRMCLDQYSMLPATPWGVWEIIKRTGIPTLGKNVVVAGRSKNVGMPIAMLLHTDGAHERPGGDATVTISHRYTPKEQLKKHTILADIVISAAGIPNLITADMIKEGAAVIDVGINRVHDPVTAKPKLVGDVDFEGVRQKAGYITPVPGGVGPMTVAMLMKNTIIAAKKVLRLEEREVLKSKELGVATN
Put plainly: MTHFD2 inhibition assay (NAD(P)H-Glo luminescence). The following applies: for MTHFD1/MTHFD2 IC50 ratio: selectivity of MTHFD2 inhibition over MTHFD1, band.

Assay [2] concerns the target T2, MTHFD1 recombinant human enzyme (Homo sapiens, UniProt P11586).
T2 sequence (P11586 2-291 limits assumed): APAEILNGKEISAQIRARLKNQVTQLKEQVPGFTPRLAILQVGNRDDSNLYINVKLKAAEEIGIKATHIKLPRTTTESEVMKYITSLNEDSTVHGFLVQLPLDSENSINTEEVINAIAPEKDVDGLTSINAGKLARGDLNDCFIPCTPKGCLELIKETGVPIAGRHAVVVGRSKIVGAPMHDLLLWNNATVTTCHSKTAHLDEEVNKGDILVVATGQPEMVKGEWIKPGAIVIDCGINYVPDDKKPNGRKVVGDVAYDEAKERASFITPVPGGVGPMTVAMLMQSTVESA
Put plainly: MTHFD1 inhibition assay (NAD(P)H-Glo luminescence). The following applies: MTHFD1 IC50, recombinant human enzyme 200 nM, NADP, band.

Regarding `COC[C@H]1CN(c2ccc3c4c(c(=O)oc3c2C)CN(C(=O)c2ccc(C(=O)NS(=O)(=O)N3C5CCC3CC5)c(OC3CCC3)c2F)CC4)CCN1C` [Example 176, (R)—N-((7-azabicyclo[2.2.1]heptan-7-yl)sulfonyl)-2-cyclobutoxy-3-fluoro-4-(8-(3-(methoxymethyl)-4-methylpiperazin-1-yl)-7-methyl-5-oxo-1,3,4,5-tetrahydro-2H-chromeno[3,4-c]pyridine-3-carbonyl)benzamide], the IC50 in assay [1] and in assay [2] was 10 to 100 nM each time. The “MTHFD1/MTHFD2 IC50 ratio” value in assay [1] is “F (<3)”.

In the case of `COC[C@H]1CN(c2cc(C)c3c4c(c(=O)oc3c2C)CN(C(=O)c2ccc(C(=O)NS(=O)(=O)N(C)C)c(N(C)C3CCC3)c2F)CC4)CCN1C` [Example 39, (R)-2-(cyclobutyl(methyl)amino)-N-(N,N-dimethylsulfamoyl)-3-fluoro-4-(8-(3-(methoxymethyl)-4-methylpiperazin-1-yl)-7,10-dimethyl-5-oxo-1,3,4,5-tetrahydro-2H-chromeno[3,4-c]pyridine-3-carbonyl)benzamide], the results for the IC50 in assay [1] and in assay [2] were 1 to 10 nM and 10 to 100 nM, respectively. In assay [1], the “MTHFD1/MTHFD2 IC50 ratio” value is “G (^ 3 to 9.0)”.

Regarding `CCOc1c(C(=O)NS(=O)(=O)N(C)C)ccc(C(=O)N2CCc3c(c(=O)oc4c(C)c(N5CCN(C)[C@@H](COC)C5)cc(C)c34)C2)c1F` [Example 146, (R)-N-(N,N-dimethylsulfamoyl)-2-ethoxy-3-fluoro-4-(8-(3-(methoxymethyl)-4-methylpiperazin-1-yl)-7,10-dimethyl-5-oxo-1,3,4,5-tetrahydro-2H-chromeno[3,4-c]pyridine-3-carbonyl)benzamide], the IC50 lay within 1 to 10 nM in assay [1] and 10 to 100 nM in assay [2]. The “MTHFD1/MTHFD2 IC50 ratio” value in assay [1] is on record as “F (<3)”.

Take `COC[C@H]1CN(c2cc(Cl)c3c4c(c(=O)oc3c2C)CN(C(=O)c2cc(N(C)C)c(C(=O)NS(=O)(=O)N3CC5(COC5)C3)cc2F)CC4)CCN1C` [Example 282, (R)-N-((2-oxa-6-azaspiro[3.3]heptan-6-yl)sulfonyl)-4-(10-chloro-8-(3-(methoxymethyl)-4-methylpiperazin-1-yl)-7-methyl-5-oxo-1,3,4,5-tetrahydro-2H-chromeno[3,4-c]pyridine-3-carbonyl)-2-(dimethylamino)-5-fluorobenzamide]: in assay [1], the IC50 is 10 to 100 nM and the “MTHFD1/MTHFD2 IC50 ratio” value is “H (>9.0 to 30)”. Besides, in assay [2], the IC50 is 100 to 1000 nM.

In the case of `COC[C@H]1CN(c2cc(C)c3c4c(c(=O)oc3c2C)CN(C(=O)c2ccc(C(=O)NS(=O)(=O)N(C)C)c(N3CCCC3)c2F)CC4)CCN1C` [Example 70, (R)-N-(N,N-dimethylsulfamoyl)-3-fluoro-4-(8-(3-(methoxymethyl)-4-methylpiperazin-1-yl)-7,10-dimethyl-5-oxo-1,3,4,5-tetrahydro-2H-chromeno[3,4-c]pyridine-3-carbonyl)-2-(pyrrolidin-1-yl)benzamide], the IC50 was 1 to 10 nM in assay [1] and 10 to 100 nM in assay [2]. Moreover, in assay [1], the “MTHFD1/MTHFD2 IC50 ratio” value is “G (^ 3 to 9.0)”.

With `COC[C@H]1CN(c2ccc3c4c(c(=O)oc3c2Cl)CN(C(=O)c2ccc(C(=O)NS(=O)(=O)C3(C)CC3)c(OC3CCCC3)c2F)CC4)CCN1C` [Example 57, (R)-4-(7-chloro-8-(3-(methoxymethyl)-4-methylpiperazin-1-yl)-5-oxo-1,3,4,5-tetrahydro-2H-chromeno[3,4-c]pyridine-3-carbonyl)-2-(cyclopentyloxy)-3-fluoro-N-((1-methylcyclopropyl)sulfonyl)benzamide], in assay [1], the IC50 was 1 to 10 nM and the “MTHFD1/MTHFD2 IC50 ratio” value is recorded as “F (<3)”. The half-inhibitory concentration (IC50) in assay [2] is 1 to 10 nM.

As for `CCOc1c(C(=O)NS(=O)(=O)N2CC3CCC(C3)C2)ccc(C(=O)N2CCc3c(c(=O)oc4c(C)c(N5CCN(C)[C@@H](COC)C5)cc(C)c34)C2)c1F` [Example 235], the IC50 in assay [1] fell in the range of 10 to 100 nM; in assay [2] it was 100 to 1000 nM. The “MTHFD1/MTHFD2 IC50 ratio” value in assay [1] is listed as “G (^ 3 to 9.0)”.

Take `COC[C@H]1CN(c2cc(C)c3c4c(c(=O)oc3c2C)CN(C(=O)c2ccc(C(=O)NS(=O)(=O)N3C5CCC3COC5)c(OC)c2F)CC4)CCN1C` [Example 158, N-((3-oxa-8-azabicyclo[3.2.1]octan-8-yl)sulfonyl)-3-fluoro-2-methoxy-4-(8-((R)-3-(methoxymethyl)-4-methylpiperazin-1-yl)-7,10-dimethyl-5-oxo-1,3,4,5-tetrahydro-2H-chromeno[3,4-c]pyridine-3-carbonyl)benzamide]: in assay [1], the IC50 was in the range of 10 to 100 nM and the “MTHFD1/MTHFD2 IC50 ratio” value was “H (>9.0 to 30)”. The IC50 in assay [2] was 100 to 1000 nM.

In the case of `COC[C@H]1CN(c2cc(C)c3c4c(c(=O)oc3c2C)CN(C(=O)c2ccc(C(=O)NS(=O)(=O)N(C)C)c(OC3C5CC6CC(C5)CC3C6)c2F)CC4)CCN1C` (stereo partly drawn) [Example 90, 2-((adamantan-2-yl)oxy)-N-(N,N-dimethylsulfamoyl)-3-fluoro-4-(8-((R)-3-(methoxymethyl)-4-methylpiperazin-1-yl)-7,10-dimethyl-5-oxo-1,3,4,5-tetrahydro-2H-chromeno[3,4-c]pyridine-3-carbonyl)benzamide], the IC50 in assay [1] and in assay [2] was 10 to 100 nM in each case.

In the case of `COC[C@H]1CN(c2ccc3c4c(c(=O)oc3c2C)CN(C(=O)c2cc(N(C)C)c(C(=O)NS(=O)(=O)N3C5CCC3CC5)cc2F)CC4)CCN1C` [Example 188, (R)-N-((7-azabicyclo[2.2.1]heptan-7-yl)sulfonyl)-2-(dimethylamino)-5-fluoro-4-(8-(3-(methoxymethyl)-4-methylpiperazin-1-yl)-7-methyl-5-oxo-1,3,4,5-tetrahydro-2H-chromeno[3,4-c]pyridine-3-carbonyl)benzamide], the IC50 in assay [1] lay within 10 to 100 nM; in assay [2] it was 1000 to 5000 nM. In assay [1], the “MTHFD1/MTHFD2 IC50 ratio” value is reported as “H (>9.0 to 30)”.

For the compound `COC[C@H]1CN(c2ccc3c4c(c(=O)oc3c2C)CN(C(=O)c2ccc(C(=O)NS(=O)(=O)N(C)C)c(O[C@@H]3C[C@@H]5C[C@@H]5C3)c2F)CC4)CCN1C` [Example 13, 2-(((1R,3r,5S)-bicyclo[3.1.0]hexan-3-yl)oxy)-N-(N,N-dimethylsulfamoyl)-3-fluoro-4-(8-((R)-3-(methoxymethyl)-4-methylpiperazin-1-yl)-7-methyl-5-oxo-1,3,4,5-tetrahydro-2H-chromeno[3,4-c]pyridine-3-carbonyl)benzamide], in assay [1], the half-maximal inhibitory concentration (IC50) fell in the range of 1 to 10 nM and the “MTHFD1/MTHFD2 IC50 ratio” value is given as “F (<3)”. In assay [2], the IC50 is 1 to 10 nM.

For `COC[C@H]1CN(c2cc(C)c3c4c(c(=O)oc3c2C)CN(C(=O)c2ccc(C(=O)NS(=O)(=O)N(C)C)c(OC3C5CC6CC(C5)CC3C6)c2)CC4)CCN1C` (stereo partly drawn) [Example 100, 2-((adamantan-2-yl)oxy)-N-(N,N-dimethylsulfamoyl)-4-(8-((R)-3-(methoxymethyl)-4-methylpiperazin-1-yl)-7,10-dimethyl-5-oxo-1,3,4,5-tetrahydro-2H-chromeno[3,4-c]pyridine-3-carbonyl)benzamide], in assay [1], the IC50 is 10 to 100 nM and the “MTHFD1/MTHFD2 IC50 ratio” value is “F (<3)”. Further, the IC50 in assay [2] lay in the range of 10 to 100 nM.

Regarding `COC[C@H]1CN(c2cc(C)c3c4c(c(=O)oc3c2C)CN(C(=O)c2ccc(C(=O)NS(=O)(=O)N3CCCC3)c(N3C5CCC3CC5)c2)CC4)CCN1C` [Example 121, (R)-2-(7-azabicyclo[2.2.1]heptan-7-yl)-4-(8-(3-(methoxymethyl)-4-methylpiperazin-1-yl)-7,10-dimethyl-5-oxo-1,3,4,5-tetrahydro-2H-chromeno[3,4-c]pyridine-3-carbonyl)-N-(pyrrolidin-1-ylsulfonyl)benzamide], in assay [1], the IC50 fell in the range of 10 to 100 nM and the “MTHFD1/MTHFD2 IC50 ratio” value is recorded as “F (<3)”. In addition, the IC50 in assay [2] was 1 to 10 nM.

Regarding `COC[C@H]1CN(c2cc(C)c3c4c(c(=O)oc3c2C)CN(C(=O)c2ccc(C(=O)NS(=O)(=O)N3CCCC3)c(OC3CCC(F)(F)CC3)c2)CC4)CCN1C` [Example 99, (R)-2-((4,4-difluorocyclohexyl)oxy)-4-(8-(3-(methoxymethyl)-4-methylpiperazin-1-yl)-7,10-dimethyl-5-oxo-1,3,4,5-tetrahydro-2H-chromeno[3,4-c]pyridine-3-carbonyl)-N-(pyrrolidin-1-ylsulfonyl)benzamide], in assay [1], the IC50 lay in the range of 10 to 100 nM and the “MTHFD1/MTHFD2 IC50 ratio” value was “F (<3)”. The IC50 in assay [2] is 10 to 100 nM.

`COC[C@H]1CN(c2cc(C)c3c4c(c(=O)oc3c2C)CN(C(=O)c2ccc(C(=O)NS(=O)(=O)C3(C)CC3)c(OC3CCC(F)(F)CC3)c2F)CC4)CCN1C` [Example 86, (R)-2-((4,4-difluorocyclohexyl)oxy)-3-fluoro-4-(8-(3-(methoxymethyl)-4-methylpiperazin-1-yl)-7,10-dimethyl-5-oxo-1,3,4,5-tetrahydro-2H-chromeno[3,4-c]pyridine-3-carbonyl)-N-((1-methylcyclopropyl)sulfonyl)benzamide]: in assay [1], the IC50 is 10 to 100 nM and the “MTHFD1/MTHFD2 IC50 ratio” value is listed as “F (<3)”. Further, the IC50 in assay [2] was 10 to 100 nM.

As a reminder, the IC50 is the midpoint of a concentration-inhibition curve.
